Legend:
pERK level in H358 cells = experiment: pERK and ERK protein content assay in H358 cells (ELISA); assay type: cell-based; details: Homo sapiens, NCI-H358, pERK/ERK ratio vs DMSO group, compound 1 μM, 24 h, read-out: Inhibition rate (%)
Experimental: H358 cells were seeded in a 24-well plate. After one day of growth, a test compound (at a concentration of 1 μM) was added. After 24 h of action of the compound, the cells were lysed, and the cell lysate was transferred to a 96-well ELISA plate. The levels of pERK and ERK in the lysate were measured using an ELISA kit (abcam 176660). The ratio of pERK to ERK was calculated and compared with that of the DMSO group, and the percentage of inhibition of pERK activity by the compound was calculated.

H358 cells = experiment: Antiproliferative activity against H358 cells (Cell Titer Glow, ultra-low attachment plate); assay type: cell-based; details: Homo sapiens, NCI-H358, 72 h, three days after addition of compound
Experimental: 2500 H358 cells were seeded in a 96-well ultra-low attachment plate (corning, 7007). After one day of growth, a serially diluted compound (a maximum concentration of 5 μM, 5-fold dilution, a total of five doses) was added. Three days after the addition of the compound, Cell Titer Glow (Promega, G9681) was added to evaluate pellet growth, and the IC50 value was calculated.

Row | SMILES | inhibition at 1 µM (pERK level in H358 cells) [%] | IC50 (H358 cells) [µM]
1 | C=CC(=O)N1CC2(CCN(c3nc(N4CC(OCC5COC5)C4)nc4c(OCC(F)(F)F)c(-c5c(C)ccc6[nH]ncc56)c(C5CC5)cc34)CC2)C1 [Compound 18] | > 90 | < 0.3
2 | C=CC(=O)N1CC2(CCN(c3nc(O[C@H]4C[C@@H](N5CCC(F)(F)C5)C4)nc4c(OCC(F)(F)F)c(-c5c(C)ccc6[nH]ncc56)c(C5CC5)cc34)CC2)C1 [Compound 91] | > 90 | < 0.3
3 | C=CCN1CCCC12CN(c1nc(N3CCC4(CC3)CN(C(=O)C=C)C4)c3cc(C4CC4)c(-c4c(C)ccc5[nH]ncc45)c(OCC(F)(F)F)c3n1)C2 [Compound 119] | > 90 | < 0.3
4 | C=CC(=O)N1CC2(CCN(c3nc(N4CC(CC#N)(N5CCCC5)C4)nc4c(OCC(F)(F)F)c(-c5c(C)ccc6[nH]ncc56)c(C5CC5)cc34)CC2)C1 [Compound 55] | > 90 | < 0.3
5 | C=CC(=O)N1CC2(CCN(c3nc(N4CC5(C4)CC(F)(F)CN5CC)nc4c(OCC(F)(F)F)c(-c5c(C)ccc6[nH]ncc56)c(C5CC5)cc34)CC2)C1 [Compound 130] | > 90 | < 0.3
6 | C=CC(=O)N1CC2(CCN(c3nc(O[C@H]4C[C@H](N(C)C)C4)nc4c(OCC(F)(F)F)c(-c5c(C)ccc6[nH]ncc56)c(C5CC5)cc34)CC2)C1 [Compound 86] | 50 to 90 | 0.3 to 1
7 | C=CC(=O)N1CC2(CCN(c3nc(N4CC5(CN(C)CCO5)C4)nc4c(OCC(F)(F)F)c(-c5c(C)ccc6[nH]ncc56)c(C5CC5)cc34)CC2)C1 [Compound 81] | > 90 | < 0.3
8 | C=CC(=O)N1CC2(CCN(c3nc(N4CC5(C=CCN5CC)C4)nc4c(OCC(F)(F)F)c(-c5c(C)ccc6[nH]ncc56)c(C5CC5)cc34)CC2)C1 [Compound 128] | > 90 | < 0.3
9 | C=CC(=O)N1CC2(CCN(c3nc(O[C@H]4C[C@H](N5CCC(F)(F)C5)C4)nc4c(OCC(F)(F)F)c(-c5c(C)ccc6[nH]ncc56)c(C5CC5)cc34)CC2)C1 [Compound 92] | 50 to 90 | > 1
10 | C=CC(=O)N1CC2(CCN(c3nc(N4CC(N5CCC56CC6)C4)nc4c(OCC(F)(F)F)c(-c5c(C)ccc6[nH]ncc56)c(C5CC5)cc34)CC2)C1 [Compound 34] | > 90 | < 0.3
11 | C=CC(=O)N1CC2(CCN(c3nc(O[C@H]4C[C@@H](N5CC6(CCC6)C5)C4)nc4c(OCC(F)(F)F)c(-c5c(C)ccc6[nH]ncc56)c(C5CC5)cc34)CC2)C1 [Compound 95] | > 90 | < 0.3
12 | C=CC(=O)N1CC2(CCN(c3nc(N4CC(CC#N)(N5CCOCC5)C4)nc4c(OCC(F)(F)F)c(-c5c(C)ccc6[nH]ncc56)c(C5CC5)cc34)CC2)C1 [Compound 56] | > 90 | < 0.3
13 | C=CC(=O)N1CC2(CCN(c3nc(N4CC(C)(CN5CCC5)C4)nc4c(OCC(F)(F)F)c(-c5c(C)ccc6[nH]ncc56)c(C5CC5)cc34)CC2)C1 [Compound 63] | > 90 | < 0.3
14 | C=CC(=O)N1CC2(CCN(c3nc(N4CC(CC#N)(N(C)CCOC)C4)nc4c(OCC(F)(F)F)c(-c5c(C)ccc6[nH]ncc56)c(C5CC5)cc34)CC2)C1 [Compound 53] | > 90 | < 0.3
15 | C=CC(=O)N1CC2(CCN(c3nc(N4CC5(CCCN5C)C4)nc4c(OCC(F)(F)F)c(-c5c(C)ccc6[nH]ncc56)c(C5CC5)cc34)CC2)C1 [Compound 73] | > 90 | < 0.3
16 | C=CC(=O)N1CC2(CCN(c3nc(N4CC(N5CC6(CC6)C5)C4)nc4c(OCC(F)(F)F)c(-c5c(C)ccc6[nH]cnc56)c(C5CC5)cc34)CC2)C1 [Compound 107] | > 90 | < 0.3

Row | SMILES | inhibition at 1 µM (pERK level in H358 cells) [%] | IC50 (H358 cells) [µM]
17 | C=CC(=O)N1CC2(CCN(c3nc(O[C@H]4C[C@@H](N5CCCC5)C4)nc4c(OCC(F)(F)F)c(-c5c(C)ccc6[nH]ncc56)c(C5CC5)cc34)CC2)C1 [Compound 89] | > 90 | < 0.3
18 | C=CC(=O)N1CC2(CCN(c3nc(N4CC(CN(C)CCOC)C4)nc4c(OCC(F)(F)F)c(-c5c(C)ccc6[nH]ncc56)c(C5CC5)cc34)CC2)C1 [Compound 5] | > 90 | < 0.3
19 | C=CC(=O)N1CC2(CCN(c3nc(N4CC(N5CC6(CC6)C5)C4)nc4c(OCC(F)(F)F)c(-c5c(C)c(F)cc6[nH]ncc56)c(C5CC5)cc34)CC2)C1 [Compound 104] | > 90 | < 0.3
20 | C=CC(=O)N1CC2(CCN(c3nc(N4CC(N5CCSCC5)C4)nc4c(OCC(F)(F)F)c(-c5c(C)ccc6[nH]ncc56)c(C5CC5)cc34)CC2)C1 [Compound 25] | > 90 | 0.3 to 1
21 | C=CC(=O)N1CC2(CCN(c3nc(N4CC5(CCCN5CCOC)C4)nc4c(OCC(F)(F)F)c(-c5c(C)ccc6[nH]ncc56)c(C5CC5)cc34)CC2)C1 [Compound 74] | > 90 | < 0.3
22 | C=CC(=O)N1CC2(CCN(c3nc(N4CC(N5CCS(=O)(=O)CC5)C4)nc4c(OCC(F)(F)F)c(-c5c(C)ccc6[nH]ncc56)c(C5CC5)cc34)CC2)C1 [Compound 27] | 50 to 90 | 0.3 to 1
23 | C=CC(=O)N1CC2(CCN(c3nc(O[C@H]4C[C@@H](N5CCC5)C4)nc4c(OCC(F)(F)F)c(-c5c(C)ccc6[nH]ncc56)c(C5CC5)cc34)CC2)C1 [Compound 87] | > 90 | < 0.3
24 | C=CC(=O)N1CC2(CCN(c3nc(N4CC5(CCCN5CC)C4)nc4c(OCC(F)(F)F)c(-c5c(C)ccc6[nH]ncc56)c(C=C)cc34)CC2)C1 [Compound 132] | > 90 | < 0.3
25 | C=CC(=O)N1CC2(CCN(c3nc(N4CC(N5CC6(CCC6)C5)C4)nc4c(OCC(F)(F)F)c(-c5c(C)ccc6[nH]ncc56)c(C5CC5)cc34)CC2)C1 [Compound 29] | > 90 | < 0.3
26 | C=CC(=O)N1CC2(CCN(c3nc(N4CC5(CCN5C5CCC5)C4)nc4c(OCC(F)(F)F)c(-c5c(C)ccc6[nH]ncc56)c(C5CC5)cc34)CC2)C1 [Compound 70] | > 90 | < 0.3
27 | C=CC(=O)N1CC2(CCN(c3nc(N4CC(N(CC)CCO)C4)nc4c(OCC(F)(F)F)c(-c5c(C)ccc6[nH]ncc56)c(C5CC5)cc34)CC2)C1 [Compound 22] | > 90 | < 0.3
28 | C=CC(=O)N1CC2(CCN(c3nc(O[C@H]4C[C@H](N5CCCC5)C4)nc4c(OCC(F)(F)F)c(-c5c(C)ccc6[nH]ncc56)c(C5CC5)cc34)CC2)C1 [Compound 90] | 50 to 90 | 0.3 to 1
29 | C=CC(=O)N1CC2(CCN(c3nc(N4CC5(CC(OC)CN5CC)C4)nc4c(OCC(F)(F)F)c(-c5c(C)ccc6[nH]ncc56)c(C5CC5)cc34)CC2)C1 (stereo not shown) [Compound 124] | > 90 | < 0.3
30 | C=CC(=O)N1CC2(CCN(c3nc(N4CC(n5cccc5)C4)nc4c(OCC(F)(F)F)c(-c5c(C)ccc6[nH]ncc56)c(C5CC5)cc34)CC2)C1 [Compound 39] | 50 to 90 | 0.3 to 1
31 | C=CC(=O)N1CC2(CCN(c3nc(N4CCOC5(CN(C)C5)C4)nc4c(OCC(F)(F)F)c(-c5c(C)ccc6[nH]ncc56)c(C5CC5)cc34)CC2)C1 [Compound 83] | 50 to 90 | 0.3 to 1
32 | C=CC(=O)N1CC2(CCN(c3nc(N4CC(OCC5CC5)C4)nc4c(OCC(F)(F)F)c(-c5c(C)ccc6[nH]ncc56)c(C5CC5)cc34)CC2)C1 [Compound 17] | > 90 | < 0.3

From patent publication US12391692B2, “Spiro ring-containing quinazoline compound” (WIGEN BIOMEDICINE TECHNOLOGY (SHANGHAI) CO., LTD., priority 2020, dated 2025)
